Assay results: the NIST ThermoML archive (doi:10.1021/je9010568)

Legend:
[1] = Liquid
[2] = φn = volume fraction of the nth substance listed; details: Liquid, φ1 = 0.75

OCCO [1,2-ethanediol]
[1]
Details | specific volume [m3/kg]
273.15 K, 100 kPa, Vibrating tube method | 0.0008871
274.14 K, 100 kPa, Vibrating tube method | 0.0008876
275.14 K, 100 kPa, Vibrating tube method | 0.0008882
276.15 K, 100 kPa, Vibrating tube method | 0.0008887
277.15 K, 100 kPa, Vibrating tube method | 0.0008893
278.15 K, 100 kPa, Vibrating tube method | 0.0008898
279.15 K, 100 kPa, Vibrating tube method | 0.0008904
280.15 K, 100 kPa, Vibrating tube method | 0.0008909
281.15 K, 100 kPa, Vibrating tube method | 0.0008915
282.15 K, 100 kPa, Vibrating tube method | 0.000892
283.15 K, 100 kPa, Vibrating tube method | 0.0008926
284.15 K, 100 kPa, Vibrating tube method | 0.0008931
285.15 K, 100 kPa, Vibrating tube method | 0.0008937
286.15 K, 100 kPa, Vibrating tube method | 0.0008942
287.15 K, 100 kPa, Vibrating tube method | 0.0008948
288.09 K, 99800 kPa, Bellows volumetry | 0.0008687
288.12 K, 348700 kPa, Bellows volumetry | 0.0008241
288.15 K, 100 kPa, Vibrating tube method | 0.0008954
288.15 K, 299700 kPa, Bellows volumetry | 0.0008313
288.15 K, 349400 kPa, Bellows volumetry | 0.0008238
288.16 K, 100 kPa, Vibrating tube method | 0.0008954
288.17 K, 150000 kPa, Bellows volumetry | 0.0008579
288.17 K, 248800 kPa, Bellows volumetry | 0.0008395
288.17 K, 298500 kPa, Bellows volumetry | 0.0008314
288.17 K, 350400 kPa, Bellows volumetry | 0.0008236
288.18 K, 48900 kPa, Bellows volumetry | 0.0008815
288.18 K, 99800 kPa, Bellows volumetry | 0.0008684
288.18 K, 149400 kPa, Bellows volumetry | 0.0008577
288.18 K, 198100 kPa, Bellows volumetry | 0.0008485
288.18 K, 299200 kPa, Bellows volumetry | 0.0008312
288.19 K, 49200 kPa, Bellows volumetry | 0.0008811
288.19 K, 249300 kPa, Bellows volumetry | 0.0008392
288.2 K, 248600 kPa, Bellows volumetry | 0.0008396
288.21 K, 100 kPa, Vibrating tube method | 0.0008954
288.21 K, 49000 kPa, Bellows volumetry | 0.0008815
288.21 K, 199700 kPa, Bellows volumetry | 0.0008479
288.22 K, 100 kPa, Vibrating tube method | 0.0008954
288.23 K, 149400 kPa, Bellows volumetry | 0.000858
288.24 K, 99600 kPa, Bellows volumetry | 0.0008688
288.24 K, 199700 kPa, Bellows volumetry | 0.0008482
289.15 K, 100 kPa, Vibrating tube method | 0.0008959
290.15 K, 100 kPa, Vibrating tube method | 0.0008965
291.15 K, 100 kPa, Vibrating tube method | 0.000897
292.15 K, 100 kPa, Vibrating tube method | 0.0008976
293.15 K, 100 kPa, Vibrating tube method | 0.0008982
294.15 K, 100 kPa, Vibrating tube method | 0.0008987
295.15 K, 100 kPa, Vibrating tube method | 0.0008993
296.15 K, 100 kPa, Vibrating tube method | 0.0008998
297.15 K, 100 kPa, Vibrating tube method | 0.0009004
298.16 K, 100 kPa, Vibrating tube method | 0.000901
299.16 K, 100 kPa, Vibrating tube method | 0.0009016
300.16 K, 100 kPa, Vibrating tube method | 0.0009021
301.16 K, 100 kPa, Vibrating tube method | 0.0009027
302.16 K, 100 kPa, Vibrating tube method | 0.0009033
303.15 K, 100 kPa, Vibrating tube method | 0.0009038
304.16 K, 100 kPa, Vibrating tube method | 0.0009044
305.15 K, 100 kPa, Vibrating tube method | 0.000905
306.15 K, 100 kPa, Vibrating tube method | 0.0009056
307.15 K, 100 kPa, Vibrating tube method | 0.0009061
308.15 K, 100 kPa, Vibrating tube method | 0.0009067
309.15 K, 100 kPa, Vibrating tube method | 0.0009073
310.15 K, 100 kPa, Vibrating tube method | 0.0009079
311.15 K, 100 kPa, Vibrating tube method | 0.0009085
312.15 K, 100 kPa, Vibrating tube method | 0.0009091
313.15 K, 100 kPa, Vibrating tube method | 0.0009097

OCCO [1,2-ethanediol] + O
[2]
Details | specific volume [m3/kg]
273.15 K, 100 kPa, Vibrating tube method | 0.0009024
274.15 K, 100 kPa, Vibrating tube method | 0.0009029
275.15 K, 100 kPa, Vibrating tube method | 0.0009035
276.15 K, 100 kPa, Vibrating tube method | 0.000904
277.15 K, 100 kPa, Vibrating tube method | 0.0009045
278.15 K, 100 kPa, Vibrating tube method | 0.0009051
279.15 K, 100 kPa, Vibrating tube method | 0.0009056
280.15 K, 100 kPa, Vibrating tube method | 0.0009061
281.15 K, 100 kPa, Vibrating tube method | 0.0009067
282.15 K, 100 kPa, Vibrating tube method | 0.0009072
283.16 K, 100 kPa, Vibrating tube method | 0.0009078
284.16 K, 100 kPa, Vibrating tube method | 0.0009083
285.16 K, 100 kPa, Vibrating tube method | 0.0009088
286.16 K, 100 kPa, Vibrating tube method | 0.0009094
287.16 K, 100 kPa, Vibrating tube method | 0.0009099
288.09 K, 100 kPa, Vibrating tube method | 0.0009104
288.09 K, 148600 kPa, Bellows volumetry | 0.0008753
288.1 K, 98200 kPa, Bellows volumetry | 0.0008859
288.11 K, 100 kPa, Vibrating tube method | 0.0009104
288.11 K, 49700 kPa, Bellows volumetry | 0.0008965
288.12 K, 98200 kPa, Bellows volumetry | 0.0008844
288.13 K, 100 kPa, Vibrating tube method | 0.0009105
288.13 K, 49400 kPa, Bellows volumetry | 0.0008974
288.13 K, 349300 kPa, Bellows volumetry | 0.0008385
288.14 K, 149800 kPa, Bellows volumetry | 0.0008734
288.14 K, 199000 kPa, Bellows volumetry | 0.0008635
288.15 K, 199100 kPa, Bellows volumetry | 0.0008654
288.16 K, 100 kPa, Vibrating tube method | 0.0009105
288.16 K, 248700 kPa, Bellows volumetry | 0.0008558
288.17 K, 299900 kPa, Bellows volumetry | 0.0008461
288.19 K, 250600 kPa, Bellows volumetry | 0.0008544
288.29 K, 299600 kPa, Bellows volumetry | 0.0008463
288.31 K, 199200 kPa, Bellows volumetry | 0.0008639
288.31 K, 350200 kPa, Bellows volumetry | 0.0008386
288.32 K, 251000 kPa, Bellows volumetry | 0.0008545
288.33 K, 49300 kPa, Bellows volumetry | 0.0008968
288.33 K, 149300 kPa, Bellows volumetry | 0.0008737
288.33 K, 300300 kPa, Bellows volumetry | 0.0008464
288.33 K, 348300 kPa, Bellows volumetry | 0.0008391
288.36 K, 100900 kPa, Bellows volumetry | 0.0008842
289.16 K, 100 kPa, Vibrating tube method | 0.000911
290.16 K, 100 kPa, Vibrating tube method | 0.0009116
291.16 K, 100 kPa, Vibrating tube method | 0.0009121
292.15 K, 100 kPa, Vibrating tube method | 0.0009127
293.15 K, 100 kPa, Vibrating tube method | 0.0009132
294.15 K, 100 kPa, Vibrating tube method | 0.0009138
295.16 K, 100 kPa, Vibrating tube method | 0.0009143
296.16 K, 100 kPa, Vibrating tube method | 0.0009149
297.15 K, 100 kPa, Vibrating tube method | 0.0009155
298.15 K, 100 kPa, Vibrating tube method | 0.000916
299.15 K, 100 kPa, Vibrating tube method | 0.0009166
300.16 K, 100 kPa, Vibrating tube method | 0.0009172
301.16 K, 100 kPa, Vibrating tube method | 0.0009177
302.16 K, 100 kPa, Vibrating tube method | 0.0009183
303.16 K, 100 kPa, Vibrating tube method | 0.0009189
304.16 K, 100 kPa, Vibrating tube method | 0.0009195
305.16 K, 100 kPa, Vibrating tube method | 0.00092
306.16 K, 100 kPa, Vibrating tube method | 0.0009206
307.15 K, 100 kPa, Vibrating tube method | 0.0009212
308.15 K, 100 kPa, Vibrating tube method | 0.0009218
309.15 K, 100 kPa, Vibrating tube method | 0.0009223
310.15 K, 100 kPa, Vibrating tube method | 0.0009229
311.15 K, 100 kPa, Vibrating tube method | 0.0009235
312.15 K, 100 kPa, Vibrating tube method | 0.0009241
313.15 K, 100 kPa, Vibrating tube method | 0.0009247
